Test results taken from the NIST ThermoML archive (doi:10.1021/acs.jced.5b00348).
Where “and” joins values, the source holds several entries; their conditions need not be identical. Equal values may be shown once.

Conditions: for vapor or sublimation pressure: Closed cell (Static) method

FC(F)(F)/C=C/Cl [(E)-1-chloro-3,3,3-trifluoroprop-1-ene]
Conditions | mass density | speed of sound
379.78 K, 201.47 kPa, Gas | – | 156.72 m/s
379.78 K, 201.53 kPa, Gas | – | 156.72 m/s
379.78 K, 407.41 kPa, Gas | – | 151.7 m/s
379.78 K, 407.46 kPa, Gas | – | 151.7 m/s
379.78 K, 407.5 kPa, Gas | – | 151.7 m/s
379.78 K, 407.74 kPa, Gas | – | 151.69 m/s
379.78 K, 407.82 kPa, Gas | – | 151.69 m/s
379.78 K, 407.85 kPa, Gas | – | 151.69 m/s
379.78 K, 568.62 kPa, Gas | – | 147.47 m/s
379.78 K, 796.76 kPa, Gas | – | 140.89 m/s
379.78 K, 796.81 kPa, Gas | – | 140.89 m/s
379.79 K, 407.85 kPa, Gas | – | 151.69 m/s
379.79 K, 796.72 kPa, Gas | – | 140.89 m/s
379.79 K, 959.4 kPa, Gas | – | 135.64 m/s
379.79 K, 959.42 kPa, Gas | – | 135.64 m/s
379.79 K, 959.44 kPa, Gas | – | 135.64 m/s
380 K, 2975.2 kPa, Fluid (supercritical or subcritical phases) | 1043.29 kg/m3 | –
380 K, 3879.4 kPa, Liquid | 1051.51 kg/m3 | –
380.03 K, 547.9 kPa, Gas | 25.032 kg/m3 | –
380.03 K, 548.2 kPa, Gas | 25.047 kg/m3 | –
380.04 K, 428.4 kPa, Gas | 19.095 kg/m3 | –
383.99 K, 1844.2 kPa, Fluid (supercritical or subcritical phases) | 1016.28 kg/m3 | –
383.99 K, 4425 kPa, Fluid (supercritical or subcritical phases) | 1042.8 kg/m3 | –
385 K, 5748.6 kPa, Liquid | 1050.89 kg/m3 | –
389.93 K, 1284.7 kPa, Gas | 67.575 kg/m3 | –
390 K, 7622.7 kPa, Liquid | 1050.32 kg/m3 | –
390.03 K, 572 kPa, Gas | 25.32 kg/m3 | –
390.03 K, 572.2 kPa, Gas | 25.33 kg/m3 | –
390.04 K, 448.1 kPa, Gas | 19.387 kg/m3 | –
391.99 K, 2100.9 kPa, Fluid (supercritical or subcritical phases) | 985.96 kg/m3 | –
391.99 K, 4502.1 kPa, Fluid (supercritical or subcritical phases) | 1015.42 kg/m3 | –
395 K, 2051.4 kPa, Liquid | 971.55 kg/m3 | –
395 K, 4073.9 kPa, Liquid | 999.34 kg/m3 | –
395 K, 6005.8 kPa, Liquid | 1020.09 kg/m3 | –
395 K, 7979.4 kPa, Liquid | 1037.8 kg/m3 | –
395 K, 9495 kPa, Liquid | 1049.74 kg/m3 | –
399.68 K, 81.08 kPa, Gas | – | 163.78 m/s
399.69 K, 81.05 kPa, Gas | – | 163.76 m/s
399.69 K, 81.08 kPa, Gas | – | 163.78 m/s
399.7 K, 81.05 kPa, Gas | – | 163.76 m/s
399.7 K, 200.81 kPa, Gas | – | 161.43 m/s
399.7 K, 200.89 kPa, Gas | – | 161.43 m/s
399.71 K, 200.94 kPa, Gas | – | 161.42 m/s
399.71 K, 201.02 kPa, Gas | – | 161.42 m/s
399.72 K, 579.09 kPa, Gas | – | 153.49 m/s
399.72 K, 579.15 kPa, Gas | – | 153.49 m/s
399.72 K, 579.18 kPa, Gas | – | 153.49 m/s
399.73 K, 1002.2 kPa, Gas | – | 143.33 m/s
399.74 K, 1002.2 kPa, Gas | – | 143.33 m/s
399.74 K, 1416.7 kPa, Gas | – | 131.29 m/s and 131.29 m/s
399.75 K, 1416.7 kPa, Gas | – | 131.29 m/s and 131.29 m/s
399.93 K, 1343.9 kPa, Gas | 67.621 kg/m3 | –
399.94 K, 1613 kPa, Gas | 87.993 kg/m3 | –
399.98 K, 2020.5 kPa, Fluid (supercritical or subcritical phases) | 946.51 kg/m3 | –
399.98 K, 2500.1 kPa, Fluid (supercritical or subcritical phases) | 955.38 kg/m3 | –
399.98 K, 4501.4 kPa, Fluid (supercritical or subcritical phases) | 985.13 kg/m3 | –
400.03 K, 468.2 kPa, Gas | 19.679 kg/m3 | –
400.03 K, 596.5 kPa, Gas | 25.617 kg/m3 and 25.615 kg/m3 | –
404.94 K, 3251 kPa, Fluid (supercritical or subcritical phases) | 944.76 kg/m3 | –
409.92 K, 1401.3 kPa, Gas | 67.63 kg/m3 | –
409.92 K, 1693.1 kPa, Gas | 87.977 kg/m3 | –
409.95 K, 2426 kPa, Fluid (supercritical or subcritical phases) | 899.12 kg/m3 | –
409.95 K, 4566.2 kPa, Fluid (supercritical or subcritical phases) | 944.3 kg/m3 | –
410.01 K, 488.6 kPa, Gas | 19.972 kg/m3 | –
410.01 K, 620.7 kPa, Gas | 25.887 kg/m3 and 25.885 kg/m3 | –
414.94 K, 3540.5 kPa, Fluid (supercritical or subcritical phases) | 898.69 kg/m3 | –
419.55 K, 79.93 kPa, Gas | – | 167.87 m/s
419.56 K, 79.92 kPa, Gas | – | 167.86 m/s
419.56 K, 79.93 kPa, Gas | – | 167.87 m/s
419.56 K, 79.94 kPa, Gas | – | 167.88 m/s
419.56 K, 79.95 kPa, Gas | – | 167.88 m/s and 167.89 m/s
419.56 K, 196.42 kPa, Gas | – | 165.91 m/s
419.56 K, 196.56 kPa, Gas | – | 165.91 m/s and 165.91 m/s
419.57 K, 196.49 kPa, Gas | – | 165.9 m/s and 165.9 m/s
419.57 K, 196.51 kPa, Gas | – | 165.9 m/s
419.57 K, 196.56 kPa, Gas | – | 165.9 m/s
419.57 K, 196.57 kPa, Gas | – | 165.9 m/s
419.57 K, 196.62 kPa, Gas | – | 165.9 m/s
419.57 K, 196.63 kPa, Gas | – | 165.91 m/s
419.58 K, 196.44 kPa, Gas | – | 165.9 m/s
419.58 K, 196.51 kPa, Gas | – | 165.9 m/s
419.58 K, 398.05 kPa, Gas | – | 162.39 m/s
419.58 K, 398.07 kPa, Gas | – | 162.39 m/s
419.58 K, 398.08 kPa, Gas | – | 162.39 m/s
419.59 K, 803.55 kPa, Gas | – | 154.82 m/s
419.59 K, 803.59 kPa, Gas | – | 154.82 m/s
419.59 K, 803.61 kPa, Gas | – | 154.82 m/s
419.59 K, 1212.4 kPa, Gas | – | 146.32 m/s
419.6 K, 1212.4 kPa, Gas | – | 146.32 m/s
419.6 K, 1723.5 kPa, Gas | – | 133.88 m/s and 133.89 m/s
419.61 K, 2072 kPa, Gas | – | 123.58 m/s
419.61 K, 2072.1 kPa, Gas | – | 123.58 m/s
419.62 K, 2072.1 kPa, Gas | – | 123.58 m/s
419.63 K, 2072.3 kPa, Gas | – | 123.59 m/s
419.65 K, 2072.5 kPa, Gas | – | 123.6 m/s
419.67 K, 2072.7 kPa, Gas | – | 123.61 m/s
419.68 K, 2072.8 kPa, Gas | – | 123.62 m/s
419.69 K, 2072.8 kPa, Gas | – | 123.62 m/s
419.69 K, 2072.9 kPa, Gas | – | 123.63 m/s
419.9 K, 1457.6 kPa, Gas | 67.627 kg/m3 | –
419.92 K, 1771.2 kPa, Gas | 87.947 kg/m3 | –
419.94 K, 4667.5 kPa, Fluid (supercritical or subcritical phases) | 898.26 kg/m3 | –
419.95 K, 2831.8 kPa, Fluid (supercritical or subcritical phases) | 841.35 kg/m3 | –
419.99 K, 510 kPa, Gas | 20.295 kg/m3 | –
420 K, 508.9 kPa, Gas | 20.248 kg/m3 | –
420 K, 645.1 kPa, Gas | 26.148 kg/m3 and 26.149 kg/m3 | –
424.94 K, 3746.2 kPa, Fluid (supercritical or subcritical phases) | 841 kg/m3 | –
429.9 K, 1513.1 kPa, Gas | 67.627 kg/m3 | –
429.9 K, 1847.8 kPa, Gas | 87.931 kg/m3 | –
429.94 K, 3475.7 kPa, Fluid (supercritical or subcritical phases) | 782.51 kg/m3 | –
429.94 K, 4675.4 kPa, Fluid (supercritical or subcritical phases) | 840.63 kg/m3 | –
430 K, 530.5 kPa, Gas | 20.558 kg/m3 | –
430 K, 669.6 kPa, Gas | 26.403 kg/m3 | –
434.94 K, 4229.4 kPa, Fluid (supercritical or subcritical phases) | 782.14 kg/m3 | –
439.89 K, 1922.8 kPa, Gas | 87.898 kg/m3 | –
439.9 K, 1568.8 kPa, Gas | 67.676 kg/m3 | –
439.95 K, 1137.4 kPa, Gas | 46.158 kg/m3 | –
439.95 K, 1568.5 kPa, Gas | 67.645 kg/m3 | –
440 K, 255.4 kPa, Gas | 9.339 kg/m3 | –
440 K, 550.9 kPa, Gas | 20.806 kg/m3 | –
440 K, 551.6 kPa, Gas | 20.832 kg/m3 | –
440 K, 694.2 kPa, Gas | 26.651 kg/m3 | –
440 K, 694.3 kPa, Gas | 26.653 kg/m3 | –
443.94 K, 475.9 kPa, Fluid (supercritical or subcritical phases) | 17.642 kg/m3 | –
443.94 K, 547.2 kPa, Fluid (supercritical or subcritical phases) | 20.44 kg/m3 | –
443.94 K, 1352.4 kPa, Fluid (supercritical or subcritical phases) | 55.612 kg/m3 | –
443.94 K, 1768.1 kPa, Fluid (supercritical or subcritical phases) | 77.205 kg/m3 | –
443.94 K, 2074.3 kPa, Fluid (supercritical or subcritical phases) | 95.28 kg/m3 | –
443.94 K, 2390.8 kPa, Fluid (supercritical or subcritical phases) | 116.63 kg/m3 | –
443.94 K, 2690.9 kPa, Fluid (supercritical or subcritical phases) | 140.42 kg/m3 | –
443.94 K, 2893.8 kPa, Fluid (supercritical or subcritical phases) | 159.35 kg/m3 | –
443.94 K, 3102.5 kPa, Fluid (supercritical or subcritical phases) | 182.38 kg/m3 | –
443.94 K, 3197.9 kPa, Fluid (supercritical or subcritical phases) | 194.61 kg/m3 | –
443.94 K, 3199.8 kPa, Fluid (supercritical or subcritical phases) | 194.61 kg/m3 | –
443.94 K, 3703.8 kPa, Fluid (supercritical or subcritical phases) | 306.77 kg/m3 | –
443.94 K, 3908.6 kPa, Fluid (supercritical or subcritical phases) | 504.42 kg/m3 | –
443.95 K, 3858 kPa, Fluid (supercritical or subcritical phases) | 426.27 kg/m3 | –
443.95 K, 4009.4 kPa, Fluid (supercritical or subcritical phases) | 593.8 kg/m3 | –
443.95 K, 4514.9 kPa, Fluid (supercritical or subcritical phases) | 704.98 kg/m3 | –
443.95 K, 5618.8 kPa, Fluid (supercritical or subcritical phases) | 781.53 kg/m3 | –

Liquid
Conditions | vapor or sublimation pressure [kPa]
380.03 K | 1207.4
390.04 K | 1480.7
400.04 K | 1798.9
410.03 K | 2166.7
415.03 K | 2371
420 K | 2589.3
424.98 K | 2823.8
429.91 K | 3073.2
429.98 K | 3076.8
434.91 K | 3346
434.97 K | 3349.8
435.91 K | 3403.5
437.91 K | 3521
